Experimental data published in patent EP1388586A2, “Identification of broadly reactive DR restricted epitopes” (priority 1998, dated 1999).
Where two headings read alike, the source gives them in different places. Ends that are not written are not given here.

Experiments:
DRB1*0301 (DR3w17) = molecular target: T1, DRB1*0301 (DR3w17) (Homo sapiens, UniProt P01903+P01911, A100K/A102G/A103R/A169T/F55Y/I96L/K41T/L162R/M171V/P40S/Q125H/Q178H/Q39Y/R42S/S66N/T106N/T262R/W38E/Y61H); test: Class II peptide-binding assay, DR3 (pH 4.5); conditions: Table VIII;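 also: unlabeled peptide competing with a radiolabeled probe peptide for binding to affinity-purified HLA-DR3, IC50 regarded as an approximation of Kd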
T1 construct: used as sources of human HLA class II molecules; endogenous in cells; host or cells: MAT (EBV-transformed homozygous B cell line)

DRB10404 (DR4w14) = molecular target: T2, DRB10404 (DR4w14) (Homo sapiens, UniProt P01903+P01911, A100R/A169T/F76Y/I96L/K127E/L162R/M171V/N62H/P40V/Q125Y/R42H/S133A/S149N/S66Y/V209L/W38E); test: Class II peptide-binding assay, DR4w14;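 also: unlabeled peptides compete with a radiolabeled probe for binding to affinity-purified HLA-DR, neutral pH, class II amount titrated to bind a small fraction of label, IC50 approximates Kd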
T2 construct: used as sources of human HLA class II molecules; endogenous in cells; host or cells: BIN40 (EBV-transformed homozygous B cell line)
Experimental: (§1) Class II peptide-binding assays. […] These assays were chosen as to be representative of the most common DR alleles.
In appropriate stoichiometric conditions, the IC50 of an unlabeled test peptide to the purified DR is a reasonable approximation of the affinity of interaction (Kd). Peptides were tested in two to four completely independent experiments. […] Final detergent concentration in the incubation mixture was 0.05% Nonidet P-40. Assays were performed at pH 7.0 with the exception of DR3, which was performed at pH 4.5, and DRw53, which was performed at pH 5.0.
(§2) All subsequent inhibition and direct binding assays were the performed using these class II concentrations.

DRB1*0701 (DR7) = DRB1*0701 (DR7) (Homo sapiens, UniProt P01903+P01911, A100R/A102G/A103Q/D57E/D86V/E43K/F76Y/K127E/L162R/M171V/P40G/Q125H/Q99D/R33Q/R42Y/R54Q/S133A/S66F/T210M/V115G/Y107V/Y59L/Y89S); test: Class II peptide-binding assay, DR7;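 also: unlabeled peptides compete with an iodinated probe peptide for binding to affinity-purified HLA-DR at neutral pH, DR amount titered to bind a small tracer fraction, IC50 approximating Kd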
DRB1*1101 (DR5w11) = molecular target: T3, DRB1*1101 (DR5w11) (Homo sapiens, UniProt P01903+P01911, A100R/A169T/A87E/I96F/K41T/L162R/M171V/P40S/Q125H/Q178H/Q39Y/Q99D/R42S/S66Y/T262R/V115G/W38E); test: Class II peptide-binding assay, DR5w11;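 also: competition by unlabeled test peptide against iodinated probe peptide binding to affinity-purified HLA-DR, class II amount titrated beforehand, half-maximal inhibitory concentration read as approximate Kd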
T3 construct: used as sources of human HLA class II molecules; endogenous in cells; host or cells: SWEIG (EBV-transformed homozygous B cell line)

DRB1*0101 (DR1) = molecular target: T4, DRB1*0101 (DR1) (Homo sapiens, UniProt P01903+P01911, A100R/D57E/F55L/F60I/F76Y/I96L/L162R/M171V/P40L/Q125E/R42F/V115G/Y59C); test: Class II peptide-binding assay, DR1;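 also: competition assay: unlabeled test peptides inhibit binding of a radiolabeled probe peptide to purified DR, with half-maximal inhibition taken as an approximate dissociation constant Kd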
T4 construct: used as sources of human HLA class II molecules; endogenous in cells; host or cells: LG2 (EBV-transformed homozygous B cell line)

DRB1*0401 (DR4w4) = molecular target: T5, DRB1*0401 (DR4w4) (Homo sapiens, UniProt P01903+P01911, A100K/A169T/F76Y/I96L/K127E/L162R/M171V/N62H/P40V/Q125Y/R42H/S133A/S149N/S66Y/V115G/V209L/W38E); test: Class II peptide-binding assay, DR4w4;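 also: unlabeled test peptides compete with a radiolabeled probe peptide for binding to affinity-purified HLA-DR, with DR amount titrated to capture a small fraction of label, IC50 approximating Kd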
T5 construct: used as sources of human HLA class II molecules; endogenous in cells; host or cells: PREISS (EBV-transformed homozygous B cell line)
Experimental: as §1
(§3) Radiolabeled peptides were iodinated using the chloramine-T method. […] In appropriate stoichiometric conditions, the IC50 of an unlabeled test peptide to the purified DR is a reasonable approximation of the affinity of interaction (Kd). Peptides were tested in two to four completely independent experiments. […] Final detergent concentration in the incubation mixture was 0.05% Nonidet P-40. Assays were performed at pH 7.0 with the exception of DR3, which was performed at pH 4.5, and DRw53, which was performed at pH 5.0.
as §2

DRB5*0101 (DR2w2a) = molecular target: T6, DRB5*0101 (DR2w2a) (Homo sapiens, UniProt P01903+Q30154); test: Class II peptide-binding assay, DR2w2a (DR2w2B2);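 also: competitive binding assay: unlabeled peptide inhibiting binding of a radiolabeled probe peptide to purified DR molecules at pH 7.0, IC50 approximating Kd, lower means stronger binding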
T6 construct: used as sources of human HLA class II molecules; endogenous in cells; host or cells: GM3107 (EBV-transformed homozygous B cell line)
Experimental: as §1, §3, §2

[1] = read-out: In IC50 Format DR3 nM, values in parentheses read as lower bounds
[2] = read-out: DR4w14 nM (In IC50 Format); purified HLA DR4w14
[3] = read-out: DR7 nM (In IC50 Format); purified HLA DR7
[4] = read-out: DR5w11 nM (In IC50 Format); purified HLA DR5w11
[5] = read-out: DR1 nM (In IC50 Format); purified HLA DR1
[6] = read-out: DR4w4 nM (In IC50 Format); purified HLA DR4w4
[7] = read-out: DR2w2B2 nM (In IC50 Format); purified HLA DR2w2β2

T3 sequence (P01903 26-254, other chains not shown): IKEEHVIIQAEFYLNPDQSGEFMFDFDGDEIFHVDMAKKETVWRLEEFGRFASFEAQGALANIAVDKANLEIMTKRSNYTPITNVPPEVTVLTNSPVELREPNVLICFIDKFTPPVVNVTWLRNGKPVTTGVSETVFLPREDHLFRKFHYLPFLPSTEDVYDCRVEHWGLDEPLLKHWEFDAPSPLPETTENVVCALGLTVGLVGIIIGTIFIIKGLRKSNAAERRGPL
T1 sequence (P01903 26-254, other chains not shown): as above

Molecule	IC50 (DRB10404 (DR4w14); [2]) [nM]	IC50 (DRB1*0701 (DR7); [3]) [nM]	IC50 (DRB1*1101 (DR5w11); [4]) [nM]	IC50 (DRB1*0101 (DR1); [5]) [nM]	IC50 (DRB1*0401 (DR4w4); [6]) [nM]	IC50 (DRB5*0101 (DR2w2a); [7]) [nM]	also measured
TVPLPSETDGYVAPL [Peptide 39.0380]							IC50 (DRB1*0301 (DR3w17); [1]): > 120000 nM
ETEYHADGGKVPIKW [Peptide 39.0367]							IC50 (DRB1*0301 (DR3w17); [1]): > 111000 nM
CC(C)C[C@H](NC(=O)[C@H](CCCCN)NC(=O)[C@H](Cc1c[nH]c2ccccc12)NC(=O)[C@H](CC(C)C)NC(=O)[C@H](CC(=O)O)NC(=O)[C@H](CO)NC(=O)[C@H](Cc1ccccc1)NC(=O)[C@@H](NC(=O)[C@H](CCC(=O)O)NC(=O)[C@H](CCC(N)=O)NC(=O)[C@H](CO)NC(=O)[C@H](CC(C)C)NC(=O)[C@@H]1CCCN1C(=O)[C@@H]1CCCN1C(=O)[C@@H](N)CCC(=O)O)[C@@H](C)O)C(=O)O [Peptide 39.0409]							IC50 (DRB1*0301 (DR3w17); read-out: In IC50 Format DR3): > 120000 nM
GDLVDAEEYLVPQQG [Peptide 39.0375]							IC50 (DRB1*0301 (DR3w17); [1]): 12000 nM
YARFQSQTTLKAAT-NH2 [Peptide 717.49]	7.1	4170	6.3	2.1	6.6	118	
YARFQSQTVLKAKT-NH2 [Peptide 717.32]	10.4	151	14.3	7.6	5.7	400	
YAAFQSQTTLKAKT-NH2 [Peptide 717.30]	7.5	4170	22.2	8.7	7.6	105	
YSRFQSQTTLKAKT-NH2 [Peptide 717.38]	15.2	6250	16.7	6.1	10	274	
Ac-AFAAAATLKA-NH2 [Peptide 770.02]	102	325	104	35.7	21.4	132	
LMQYIKANSKFIGITE [Peptide 812.03]							IC50 (DRB10404 (DR4w14); purified HLA DR4w14; read-out: DR4w14 nM (In IC50 Format)): 65.8 nM; IC50 (DRB1*0701 (DR7); purified HLA DR7; read-out: DR7 nM (In IC50 Format)): 11.9 nM; IC50 (DRB1*1101 (DR5w11); purified HLA DR5w11; read-out: DR5w11 nM (In IC50 Format)): 13.9 nM; IC50 (DRB1*0101 (DR1); purified HLA DR1; read-out: DR1 nM (In IC50 Format)): 13.2 nM; IC50 (DRB1*0401 (DR4w4); purified HLA DR4w4; read-out: DR4w4 nM (In IC50 Format)): 150 nM; IC50 (DRB5*0101 (DR2w2a); purified HLA DR2w2β2; read-out: DR2w2B2 nM (In IC50 Format)): 4.9 nM
YARFQSQTTLKAKT [Peptide 717.67]	11.1	1390	7.4	3.6	6	167	
YARFQSQTTLKSKT-NH2 [Peptide 717.23]	21.7	8330	25.3	294	2.8	215	
YARFQSQTTAKAKT-NH2 [Peptide 717.51]	13.2	6250	38.8	3.3	6.1	66.7	
YARFQSQETLKAKT-NH2 [Peptide 717.17]	25	1920	18.2	6	5.2	870	
